Results published in paper PMC6540285, “Evaluation of Protein Kinase Inhibitors with PLK4 Cross-Over Potential in a Pre-Clinical Model of Cancer” (International Journal of Molecular Sciences, 2019).

Tests used:
MAPK10 (JNK3) = MAPK10 (JNK3) (Homo sapiens, UniProt P53779); assay: SelectScreen kinase profiling, LanthaScreen binding
MAPK11 (p38 beta) = MAPK11 (p38 beta) (Homo sapiens, UniProt Q15759); assay: SelectScreen kinase profiling, ZLYTE; format: biochemical
PDGFRA V561D = PDGFRA V561D (Homo sapiens, UniProt P16234, V561D); assay: SelectScreen kinase profiling, ZLYTE; format: biochemical
RET V804M = RET V804M (Homo sapiens, UniProt P07949, V804M); assay: SelectScreen kinase profiling, LanthaScreen binding
RET = RET (Homo sapiens, UniProt P07949); assay: SelectScreen kinase profiling, ZLYTE; format: biochemical
CDK13/cyclin K = CDK13/cyclin K (Homo sapiens, UniProt Q14004); assay: SelectScreen kinase profiling, LanthaScreen binding; conditions: read-out: % Inhibition Avg
DYRK3 = DYRK3 (Homo sapiens, UniProt O43781); assay: SelectScreen kinase profiling, ZLYTE; format: biochemical; conditions: DYRK3, 10 µM
ALK T1151_L1152insT = ALK T1151_L1152insT (Homo sapiens, UniProt Q9UM73, INS1151T); assay: SelectScreen kinase profiling, LanthaScreen binding
ACVRL1 (ALK1) = ACVRL1 (ALK1) (Homo sapiens, UniProt P37023); assay: as above
FRAP1 (mTOR) = FRAP1 (mTOR) (Homo sapiens, UniProt P42345); assay: SelectScreen kinase profiling, ZLYTE; format: biochemical
PHKG1 = PHKG1 (Homo sapiens, UniProt Q16816); assay: SelectScreen kinase profiling, ZLYTE; format: biochemical; conditions: PHKG1, 10 µM
DAPK1 = DAPK1 (Homo sapiens, UniProt P53355); assay: SelectScreen kinase profiling, Adapta; format: biochemical; conditions: DAPK1, 10 µM
LIMK1 = LIMK1 (Homo sapiens, UniProt P53667); assay: SelectScreen kinase profiling, LanthaScreen binding; conditions: LIMK1, 10 µM
[1] = biological target: PIK3CA/PIK3R1 (p110 alpha/p85 alpha) (Homo sapiens, UniProt P42336); assay: SelectScreen kinase profiling, Adapta; format: biochemical; conditions: PIK3CA/PIK3R1, 10 µM
PKN2 (PRK2) = PKN2 (PRK2) (Homo sapiens, UniProt Q16513); assay: SelectScreen kinase profiling, LanthaScreen binding
PRKCH (PKC eta) = PRKCH (PKC eta) (Homo sapiens, UniProt P24723); assay: SelectScreen kinase profiling, ZLYTE; format: biochemical
AMPK (A2/B1/G2) = AMPK (A2/B1/G2) (Homo sapiens, UniProt P54646); assay: SelectScreen kinase profiling, ZLYTE; format: biochemical
MAPKAPK5 (PRAK) = MAPKAPK5 (PRAK) (Homo sapiens, UniProt Q8IW41); assay: SelectScreen kinase profiling, ZLYTE; format: biochemical
JAK2 JH1 JH2 V617F = biological target: T1, JAK2 JH1 JH2 V617F (Homo sapiens, UniProt O60674, V617F); assay: SelectScreen kinase profiling, ZLYTE; format: biochemical
T1 construct: JAK2 JH1 JH2 V617F

ITK = ITK (Homo sapiens, UniProt Q08881); assay: SelectScreen kinase profiling, ZLYTE; format: biochemical
FLT3 ITD = assay: SelectScreen kinase profiling, LanthaScreen binding; conditions: 10 µM
PI4K2A (PI4K2 alpha) = PI4K2A (PI4K2 alpha) (Homo sapiens, UniProt Q9BTU6); assay: SelectScreen kinase profiling, Adapta; format: biochemical
FLT3 D835Y = FLT3 D835Y (Homo sapiens, UniProt P36888, D835Y); assay: SelectScreen kinase profiling, ZLYTE; format: biochemical
PIM2 = PIM2 (Homo sapiens, UniProt Q9P1W9); assay: SelectScreen kinase profiling, ZLYTE; format: biochemical; conditions: PIM2, 10 µM
FGR = FGR (Homo sapiens, UniProt P09769); assay: SelectScreen kinase profiling, ZLYTE; format: biochemical
STK17B (DRAK2) = STK17B (DRAK2) (Homo sapiens, UniProt O94768); assay: SelectScreen kinase profiling, LanthaScreen binding
CDK5/p35 = CDK5/p35 (Homo sapiens, UniProt Q00535); assay: SelectScreen kinase profiling, ZLYTE; format: biochemical; conditions: CDK5/p35, 10 µM
CAMK2D (CaMKII delta) = CAMK2D (CaMKII delta) (Homo sapiens, UniProt Q13557); assay: SelectScreen kinase profiling, ZLYTE; format: biochemical
MKNK2 (MNK2) = MKNK2 (MNK2) (Homo sapiens, UniProt Q9HBH9); assay: SelectScreen kinase profiling, LanthaScreen binding
PDK1 = PDK1 (Homo sapiens, UniProt O15530); assay: SelectScreen kinase profiling, ZLYTE; format: biochemical; conditions: PDK1, 10 µM
PIK3C3 (hVPS34) = PIK3C3 (hVPS34) (Homo sapiens, UniProt Q8NEB9); assay: SelectScreen kinase profiling, Adapta; format: biochemical
GRK6 = GRK6 (Homo sapiens, UniProt P43250); assay: SelectScreen kinase profiling, ZLYTE; format: biochemical; conditions: GRK6, 10 µM
SIK1 = SIK1 (Homo sapiens, UniProt P57059); assay: SelectScreen kinase profiling, LanthaScreen binding; conditions: SIK1, 10 µM
NEK7 = NEK7 (Homo sapiens, UniProt Q8TDX7); assay: SelectScreen kinase profiling, ZLYTE; format: biochemical; conditions: NEK7, 10 µM
JAK1 = JAK1 (Homo sapiens, UniProt P23458); assay: SelectScreen kinase profiling, ZLYTE; format: biochemical; conditions: JAK1, 10 µM
LATS1 = LATS1 (Homo sapiens, UniProt O95835); assay: SelectScreen kinase profiling, LanthaScreen binding; conditions: LATS1, 10 µM
PRKCD (PKC delta) = PRKCD (PKC delta) (Homo sapiens, UniProt Q05655); assay: SelectScreen kinase profiling, ZLYTE; format: biochemical
FGFR2 N549H = FGFR2 N549H (Homo sapiens, UniProt P21802, N549H); assay: SelectScreen kinase profiling, ZLYTE; format: biochemical
MAPK8 (JNK1) = MAPK8 (JNK1) (Homo sapiens, UniProt P45983); assay: SelectScreen kinase profiling, ZLYTE; format: biochemical
Chain of MAPK8 (JNK1) (P45983 whole entry): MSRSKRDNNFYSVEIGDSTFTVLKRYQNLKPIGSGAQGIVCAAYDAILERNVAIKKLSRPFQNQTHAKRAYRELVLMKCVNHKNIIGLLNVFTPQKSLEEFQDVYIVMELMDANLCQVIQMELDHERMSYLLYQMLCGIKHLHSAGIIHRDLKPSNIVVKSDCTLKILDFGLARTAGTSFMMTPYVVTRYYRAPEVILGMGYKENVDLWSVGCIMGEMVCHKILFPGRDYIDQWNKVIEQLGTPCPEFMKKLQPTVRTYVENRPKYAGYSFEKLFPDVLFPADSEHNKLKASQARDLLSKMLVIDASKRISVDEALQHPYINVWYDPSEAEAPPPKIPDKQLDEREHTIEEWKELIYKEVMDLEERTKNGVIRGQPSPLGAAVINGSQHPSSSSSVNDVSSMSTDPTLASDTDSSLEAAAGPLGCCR

Chain of STK17B (DRAK2) (O94768 whole entry): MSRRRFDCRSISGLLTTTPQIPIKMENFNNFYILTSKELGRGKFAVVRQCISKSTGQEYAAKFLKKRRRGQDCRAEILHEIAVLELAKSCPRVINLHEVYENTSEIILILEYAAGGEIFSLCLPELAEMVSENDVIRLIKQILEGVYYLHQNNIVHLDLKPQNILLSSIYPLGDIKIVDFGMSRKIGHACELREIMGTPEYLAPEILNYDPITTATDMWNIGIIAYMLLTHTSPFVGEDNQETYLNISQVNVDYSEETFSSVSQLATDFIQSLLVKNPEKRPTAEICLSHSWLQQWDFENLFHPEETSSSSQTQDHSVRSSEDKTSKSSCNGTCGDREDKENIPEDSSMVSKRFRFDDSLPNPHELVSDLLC
Chain of DAPK1 (P53355 whole entry): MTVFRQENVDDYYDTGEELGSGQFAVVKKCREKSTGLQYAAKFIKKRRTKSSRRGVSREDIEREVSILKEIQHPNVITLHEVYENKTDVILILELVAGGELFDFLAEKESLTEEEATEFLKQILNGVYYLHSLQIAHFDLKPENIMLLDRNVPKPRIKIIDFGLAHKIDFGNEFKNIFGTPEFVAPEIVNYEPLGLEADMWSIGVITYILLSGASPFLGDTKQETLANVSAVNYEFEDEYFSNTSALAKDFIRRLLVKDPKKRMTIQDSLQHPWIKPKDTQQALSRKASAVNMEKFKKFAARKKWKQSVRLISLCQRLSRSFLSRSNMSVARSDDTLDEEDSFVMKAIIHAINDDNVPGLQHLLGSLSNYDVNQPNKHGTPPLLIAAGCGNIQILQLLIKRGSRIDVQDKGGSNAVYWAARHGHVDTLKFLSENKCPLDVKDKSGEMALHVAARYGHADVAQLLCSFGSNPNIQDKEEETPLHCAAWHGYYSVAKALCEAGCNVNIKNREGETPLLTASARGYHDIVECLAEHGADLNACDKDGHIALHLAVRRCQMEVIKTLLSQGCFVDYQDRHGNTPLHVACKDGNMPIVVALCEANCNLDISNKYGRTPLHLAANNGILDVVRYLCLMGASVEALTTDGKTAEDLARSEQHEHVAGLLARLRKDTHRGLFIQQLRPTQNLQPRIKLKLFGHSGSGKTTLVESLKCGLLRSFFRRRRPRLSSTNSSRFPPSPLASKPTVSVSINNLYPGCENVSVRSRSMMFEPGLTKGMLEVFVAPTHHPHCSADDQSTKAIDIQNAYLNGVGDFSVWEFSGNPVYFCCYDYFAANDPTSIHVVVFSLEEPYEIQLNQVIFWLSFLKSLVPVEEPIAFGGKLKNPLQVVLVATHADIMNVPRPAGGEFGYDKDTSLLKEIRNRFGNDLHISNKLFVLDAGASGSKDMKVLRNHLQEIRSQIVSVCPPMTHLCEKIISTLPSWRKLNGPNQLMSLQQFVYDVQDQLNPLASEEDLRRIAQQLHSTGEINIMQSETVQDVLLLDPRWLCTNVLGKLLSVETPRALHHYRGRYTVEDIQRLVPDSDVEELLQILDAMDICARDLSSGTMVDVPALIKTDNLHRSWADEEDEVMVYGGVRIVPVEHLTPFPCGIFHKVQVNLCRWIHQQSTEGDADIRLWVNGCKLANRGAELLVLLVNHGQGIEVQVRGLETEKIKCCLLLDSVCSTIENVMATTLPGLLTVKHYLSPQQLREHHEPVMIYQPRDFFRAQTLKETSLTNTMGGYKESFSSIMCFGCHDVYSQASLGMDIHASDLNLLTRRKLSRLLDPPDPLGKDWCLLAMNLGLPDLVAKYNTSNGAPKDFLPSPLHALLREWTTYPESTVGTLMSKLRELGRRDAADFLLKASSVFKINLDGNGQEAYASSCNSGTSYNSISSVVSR
Chain of FGFR2 N549H (P21802 22-821 N549H): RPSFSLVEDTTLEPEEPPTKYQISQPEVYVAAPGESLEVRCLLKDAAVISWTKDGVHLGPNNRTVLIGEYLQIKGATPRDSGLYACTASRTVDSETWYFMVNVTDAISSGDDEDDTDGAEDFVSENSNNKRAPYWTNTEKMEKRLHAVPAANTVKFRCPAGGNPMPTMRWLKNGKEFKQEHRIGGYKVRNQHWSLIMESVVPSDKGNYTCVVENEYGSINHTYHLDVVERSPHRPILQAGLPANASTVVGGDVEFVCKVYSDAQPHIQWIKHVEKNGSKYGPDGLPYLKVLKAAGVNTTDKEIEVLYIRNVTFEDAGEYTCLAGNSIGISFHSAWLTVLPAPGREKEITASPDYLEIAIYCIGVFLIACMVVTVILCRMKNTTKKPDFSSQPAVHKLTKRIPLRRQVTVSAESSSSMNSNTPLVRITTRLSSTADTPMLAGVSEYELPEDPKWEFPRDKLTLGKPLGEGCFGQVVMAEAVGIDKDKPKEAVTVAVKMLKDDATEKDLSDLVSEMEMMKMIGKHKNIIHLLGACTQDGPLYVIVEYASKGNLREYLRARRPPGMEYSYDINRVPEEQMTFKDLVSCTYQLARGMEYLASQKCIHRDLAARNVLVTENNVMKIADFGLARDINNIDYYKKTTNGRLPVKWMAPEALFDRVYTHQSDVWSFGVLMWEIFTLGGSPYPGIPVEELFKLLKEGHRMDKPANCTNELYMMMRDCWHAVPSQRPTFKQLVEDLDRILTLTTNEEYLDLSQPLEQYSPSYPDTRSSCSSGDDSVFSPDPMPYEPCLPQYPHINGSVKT
Chain of PI4K2A (PI4K2 alpha) (Q9BTU6 whole entry): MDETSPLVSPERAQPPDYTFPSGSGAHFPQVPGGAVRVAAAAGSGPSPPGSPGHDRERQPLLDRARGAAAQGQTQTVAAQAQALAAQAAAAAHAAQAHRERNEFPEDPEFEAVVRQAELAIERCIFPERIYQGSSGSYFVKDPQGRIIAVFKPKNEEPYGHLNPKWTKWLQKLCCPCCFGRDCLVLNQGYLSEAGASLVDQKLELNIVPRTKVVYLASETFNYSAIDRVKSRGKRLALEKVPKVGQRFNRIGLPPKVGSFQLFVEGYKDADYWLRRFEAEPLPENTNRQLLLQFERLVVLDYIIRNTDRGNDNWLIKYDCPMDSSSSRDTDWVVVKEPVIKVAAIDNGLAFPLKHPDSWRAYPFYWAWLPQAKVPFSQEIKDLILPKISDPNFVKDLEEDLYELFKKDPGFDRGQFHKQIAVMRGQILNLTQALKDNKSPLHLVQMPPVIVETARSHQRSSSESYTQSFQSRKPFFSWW
Chain of PDGFRA V561D (P16234 24-1089 V561D): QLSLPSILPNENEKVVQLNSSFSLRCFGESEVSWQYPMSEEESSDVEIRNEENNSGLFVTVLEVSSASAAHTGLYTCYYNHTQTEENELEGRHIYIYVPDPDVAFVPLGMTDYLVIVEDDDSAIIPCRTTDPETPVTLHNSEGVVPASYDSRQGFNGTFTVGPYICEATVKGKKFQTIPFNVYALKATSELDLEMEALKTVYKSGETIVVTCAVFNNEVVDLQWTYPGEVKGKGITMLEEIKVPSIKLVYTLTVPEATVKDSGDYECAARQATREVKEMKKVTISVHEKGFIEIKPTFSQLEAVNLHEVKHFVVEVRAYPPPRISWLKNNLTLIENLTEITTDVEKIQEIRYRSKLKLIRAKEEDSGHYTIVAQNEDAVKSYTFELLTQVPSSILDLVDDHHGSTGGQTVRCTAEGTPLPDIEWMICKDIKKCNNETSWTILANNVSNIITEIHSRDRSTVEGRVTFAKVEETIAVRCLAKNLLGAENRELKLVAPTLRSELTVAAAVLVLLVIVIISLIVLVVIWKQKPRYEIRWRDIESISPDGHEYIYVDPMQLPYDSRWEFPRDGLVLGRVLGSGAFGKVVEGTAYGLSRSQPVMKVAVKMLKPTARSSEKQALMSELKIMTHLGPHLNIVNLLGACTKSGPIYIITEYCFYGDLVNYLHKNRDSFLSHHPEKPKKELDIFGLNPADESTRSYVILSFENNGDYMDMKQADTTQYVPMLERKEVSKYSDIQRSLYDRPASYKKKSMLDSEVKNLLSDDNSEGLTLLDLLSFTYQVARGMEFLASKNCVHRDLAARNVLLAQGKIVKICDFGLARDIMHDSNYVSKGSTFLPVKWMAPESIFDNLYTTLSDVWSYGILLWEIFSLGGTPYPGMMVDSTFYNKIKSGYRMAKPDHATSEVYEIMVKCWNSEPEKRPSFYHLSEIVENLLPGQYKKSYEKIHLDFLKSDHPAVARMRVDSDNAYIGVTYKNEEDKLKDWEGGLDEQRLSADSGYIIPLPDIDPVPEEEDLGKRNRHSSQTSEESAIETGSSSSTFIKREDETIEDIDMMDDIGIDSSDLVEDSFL
Chain of PHKG1 (Q16816 whole entry): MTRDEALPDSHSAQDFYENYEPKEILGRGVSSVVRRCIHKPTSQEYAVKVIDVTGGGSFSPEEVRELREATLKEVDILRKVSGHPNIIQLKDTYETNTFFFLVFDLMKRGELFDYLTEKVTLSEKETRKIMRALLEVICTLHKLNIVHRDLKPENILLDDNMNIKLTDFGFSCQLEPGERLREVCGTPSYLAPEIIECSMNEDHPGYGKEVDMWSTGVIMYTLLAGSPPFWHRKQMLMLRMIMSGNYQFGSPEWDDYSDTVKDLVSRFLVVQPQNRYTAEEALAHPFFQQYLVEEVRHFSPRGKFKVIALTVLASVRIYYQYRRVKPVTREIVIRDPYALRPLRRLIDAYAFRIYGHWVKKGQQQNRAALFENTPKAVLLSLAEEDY

SMILES: O=C(c1ccc(/C=C/c2n[nH]c3ccccc23)cc1)N1CCNCC1 [KW-2449]
- inhibition at 10 µM (MAPK10 (JNK3)): 88%
- inhibition at 10 µM (MAPK11 (p38 beta)): 90%
- inhibition at 10 µM (PDGFRA V561D): 97%
- inhibition at 10 µM (RET V804M): -5%
- inhibition at 10 µM (RET): 101%
- inhibition at 10 µM (CDK13/cyclin K): 70%
- inhibition at 10 µM (DYRK3): 86%
- inhibition at 10 µM (ALK T1151_L1152insT): 26%
- inhibition at 10 µM (ACVRL1 (ALK1)): 86%
- inhibition at 10 µM (FRAP1 (mTOR)): 9%
- inhibition at 10 µM (PHKG1): 100%
- inhibition at 10 µM (DAPK1): 90%
- inhibition at 10 µM (LIMK1): 32%
- inhibition at 10 µM [1]: 11%
- inhibition at 10 µM (PKN2 (PRK2)): 65%
- inhibition at 10 µM (PRKCH (PKC eta)): -2%
- inhibition at 10 µM (AMPK (A2/B1/G2)): 97%
- inhibition at 10 µM (MAPKAPK5 (PRAK)): 87%
- inhibition at 10 µM (JAK2 JH1 JH2 V617F): 94%
- inhibition at 10 µM (ITK): 99%
- % Inhibition Avg (FLT3 ITD): 5%
- inhibition at 10 µM (PI4K2A (PI4K2 alpha)): 4%
- inhibition at 10 µM (FLT3 D835Y): 100%
- inhibition at 10 µM (PIM2): 8%
- inhibition at 10 µM (FGR): 99%
- inhibition at 10 µM (STK17B (DRAK2)): 58%
- inhibition at 10 µM (CDK5/p35): 94%
- inhibition at 10 µM (CAMK2D (CaMKII delta)): 96%
- inhibition at 10 µM (MKNK2 (MNK2)): 68%
- inhibition at 10 µM (PDK1): 77%
- inhibition at 10 µM (PIK3C3 (hVPS34)): -3%
- inhibition at 10 µM (GRK6): 62%
- inhibition at 10 µM (SIK1): 82%
- inhibition at 10 µM (NEK7): 7%
- inhibition at 10 µM (JAK1): 94%
- inhibition at 10 µM (LATS1): -17%
- inhibition at 10 µM (PRKCD (PKC delta)): 25%
- inhibition at 10 µM (FGFR2 N549H): 94%
- inhibition at 10 µM (MAPK8 (JNK1)): 96%
